PMC9127750, “Structure-based design of CDC42 effector interaction inhibitors for the treatment of cancer” (Cell reports, 2022)
Several values for one entry are separate records, joined by “and”; a condition that tells them apart may be missing. Identical values can stand only once.

Tested on: WM3248 melanoma cells, 486 antibodies
Assay: Reverse phase protein arrays (RPPA)
Assay type: cell-based, Human
Source text: Pellets were snap frozen in liquid nitrogen and shipped to MD Anderson Cancer Center core RPPA facility for RPPA analysis (Table S5). Three biological replicates for each sample were generated.
Nomenclatures on the RPPA heatmaps: name_of_antibody.species_of_antibody.status_of_antibody. V - antibody validated; C - validation of antibody in progress; Q - antibody nonspecific; E – under evaluation; antibodies raised in M - mouse, G - goat, R - rabbit, or T - rat.

[1] = Norm_10, replicates 1-3 and Average, relative to Norm_0

Compound: CN(C)c1cccc(Nc2cc(-c3ccccc3)nc(C3CCNCC3)n2)c1 [ARN22089, N1,N1-dimethyl-N3-(6-phenyl-2-(piperidin-4-yl)pyrimidin-4-yl)benzene-1,3-diamine]
- A.Raf.R.V RPPA signal, normalized [1]: 1.018 and 0.886 and 0.845 and 0.916
- A.Raf_pS299.R.C RPPA signal, normalized [1]: 0.956 and 1.046 and 0.963 and 0.988
- ACC1.R.C RPPA signal, normalized [1]: 0.867 and 0.964 and 1.014
- ACC_pS79.R.V RPPA signal, normalized [1]: 1.238 and 0.635 and 0.956 and 0.943
- ACLY_pS455.R.V RPPA signal, normalized [1]: 1.247 and 1.003 and 1.249 and 1.166
- ACSL1.R.V RPPA signal, normalized [1]: 1.119 and 1.062 and 0.954
- ACVRL1.R.C RPPA signal, normalized [1]: 0.974 and 1.028 and 1.030
- ADAR1.M.V RPPA signal, normalized [1]: 1.080 and 1.272 and 0.921
- ALKBH5.R.V RPPA signal, normalized [1]: 1.021 and 1.291 and 1.103 and 1.138
- AMPK.a2_pS345.R.V RPPA signal, normalized [1]: 0.954 and 0.956 and 0.960
- AMPKa.R.C RPPA signal, normalized [1]: 1.010 and 0.920 and 1.002 and 0.977
- AMPKa_pT172.R.C RPPA signal, normalized [1]: 3.569 and 0.222 and 0.796 and 1.529
- AR.R.V RPPA signal, normalized [1]: 0.751 and 0.934 and 0.920
- ARID1A.R.C RPPA signal, normalized [1]: 1.114 and 1.573 and 0.868 and 1.185
- ASNS.R.V RPPA signal, normalized [1]: 1.340 and 0.994 and 0.954 and 1.096
- ATM.R.V RPPA signal, normalized [1]: 0.847 and 0.838 and 0.979 and 0.888
- ATM_pS1981.R.V RPPA signal, normalized [1]: 0.930 and 1.145
- ATP5A.M.C RPPA signal, normalized [1]: 1.031 and 1.371 and 1.971 and 1.457
- ATP5H.R.V RPPA signal, normalized [1]: 0.974 and 1.346 and 1.188 and 1.169
- ATR.R.V RPPA signal, normalized [1]: 0.962 and 1.081 and 1.002 and 1.015
- ATRX.R.C RPPA signal, normalized [1]: 0.876 and 0.968 and 0.978
- ATR_pS428.R.C RPPA signal, normalized [1]: 1.008 and 0.851 and 1.012 and 0.957
- AceCS1.R.V RPPA signal, normalized [1]: 1.235 and 1.121
- Akt1.R.V RPPA signal, normalized [1]: 0.800 and 0.756 and 1.156 and 0.904
- Akt1_pS473.R.V RPPA signal, normalized [1]: 0.892 and 0.682 and 1.059 and 0.878
- Akt2.R.V RPPA signal, normalized [1]: 0.829 and 0.768 and 1.018 and 0.872
- Akt2_pS474.R.C RPPA signal, normalized [1]: 1.011 and 0.801 and 0.950
- Akt.R.V RPPA signal, normalized [1]: 0.830 and 0.878 (2×) and 0.925
- Akt_pS473.R.V RPPA signal, normalized [1]: 2.128 and 0.984 and 1.238 and 1.450
- Akt_pT308.R.V RPPA signal, normalized [1]: 1.187 and 1.056 and 1.185 and 1.143
- Ambra1_pS52.R.C RPPA signal, normalized [1]: 0.964 (2×) and 1.015 and 0.981
- Annexin.I.M.V RPPA signal, normalized [1]: 0.849 and 0.987 and 1.005
- Annexin.VII.M.V RPPA signal, normalized [1]: 0.985 and 1.189 and 0.954
- Atg3.R.V RPPA signal, normalized [1]: 0.983 and 0.993 and 0.963
- Atg4B.R.C RPPA signal, normalized [1]: 0.966 and 1.004
- Atg5.R.C RPPA signal, normalized [1]: 0.905 and 0.930 and 0.971 and 0.935
- Atg7.R.V RPPA signal, normalized [1]: 0.958 and 0.891 and 0.903 and 0.917
- Aurora.A.R.C RPPA signal, normalized [1]: 0.694 and 1.245 and 1.028 and 0.989
- Aurora.ABC_pT288_pT232_pT198.R.C RPPA signal, normalized [1]: 1.548 and 0.847 and 0.955 and 1.117
- Aurora.B.R.V RPPA signal, normalized [1]: 1.012 and 1.271 and 1.347 and 1.210
- Axl.R.V RPPA signal, normalized [1]: 1.047 and 0.637 and 0.861 and 0.848
- B7.H3.R.C RPPA signal, normalized [1]: 0.961 and 0.915 and 0.940 and 0.939
- B7.H4.R.C RPPA signal, normalized [1]: 0.943 and 0.916 and 1.001 and 0.953
- B.Raf.R.C RPPA signal, normalized [1]: 0.738 and 0.844 and 1.157 and 0.913
- B.Raf_pS445.R.V RPPA signal, normalized [1]: 0.940 and 0.823 and 0.918 and 0.894
- BAP1.M.V RPPA signal, normalized [1]: 0.893 and 1.010 and 1.204
- BCL2A1.R.V RPPA signal, normalized [1]: 0.914 and 2.333 and 1.252 and 1.499
- BMK1.Erk5_pT218_Y220.R.V RPPA signal, normalized [1]: 0.935 and 0.870 and 0.918
- BRCA1.M.C RPPA signal, normalized [1]: 0.931 and 1.056 and 1.010
- BRD4.R.V RPPA signal, normalized [1]: 1.134 and 1.372 and 0.806 and 1.104
- Bad_pS112.R.V RPPA signal, normalized [1]: 1.129 and 0.968 and 1.064 and 1.054
- Bak.R.C RPPA signal, normalized [1]: 1.051 and 0.994 and 0.952 and 0.999
- Bax.R.V RPPA signal, normalized [1]: 0.935 and 1.085 and 1.013 and 1.011
- Bcl2.R.C RPPA signal, normalized [1]: 0.991 and 1.244 and 1.141 and 1.125
- Bcl.xL.R.V RPPA signal, normalized [1]: 0.890 and 1.164 and 1.151
- Beclin.R.C RPPA signal, normalized [1]: 0.901 and 1.245 and 1.080
- BiP.GRP78.M.C RPPA signal, normalized [1]: 0.879 and 1.117 and 1.006 and 1.001
- Bid.R.C RPPA signal, normalized [1]: 0.866 and 0.980 and 0.948 and 0.931
- Bim.R.V RPPA signal, normalized [1]: 0.847 and 0.884 and 0.890 and 0.874
- X4E.BP1.R.V RPPA signal, normalized [1]: 1.207 and 0.505 and 0.892 and 0.868
- X4E.BP1_pS65.R.V RPPA signal, normalized [1]: 0.934 and 1.191 and 1.054
- X4E.BP1_pT37_T46.R.V RPPA signal, normalized [1]: 0.921 and 1.081 and 1.234 and 1.079
- X14.3.3.zeta.R.V RPPA signal, normalized [1]: 1.058 and 1.063
- X14.3.3βR.V RPPA signal, normalized [1]: 0.989 and 1.030 and 1.010 (2×)
- X14.3.3εM.C RPPA signal, normalized [1]: 0.934 and 0.986 and 1.121 and 1.013
- X53BP1.R.V RPPA signal, normalized [1]: 0.994 and 0.931 and 0.923
- b.Actin.R.C RPPA signal, normalized [1]: 0.850 and 1.249 and 1.164
- b.Catenin.R.V RPPA signal, normalized [1]: 0.881 and 0.923
- b.Catenin_pT41_S45.R.V RPPA signal, normalized [1]: 1.016 and 0.989 and 1.006 and 1.004
- c.Abl.R.V RPPA signal, normalized [1]: 1.105 and 1.008 and 1.020
- c.Abl_pY412.R.C RPPA signal, normalized [1]: 0.873 and 0.871 and 0.928
- c.IAP2.R.C RPPA signal, normalized [1]: 1.099 and 1.057
- C.Raf.R.C normalized signal (Norm_10 Average): 0.862
- C.Raf_pS338.R.V normalized signal (Norm_10 Average): 0.971
- CA9.R.C normalized signal (Norm_10 Average): 0.943
- CD2.M.C normalized signal (Norm_10 Average): 0.963
- CD4.R.V normalized signal (Norm_10 Average): 0.931
- CD5.M.C normalized signal (Norm_10 Average): 1.007
- CD20.R.C normalized signal (Norm_10 Average): 1.296
- CD26.R.V normalized signal (Norm_10 Average): 1.007
- CD29.M.V normalized signal (Norm_10 Average): 0.953
